# How the values were obtained:
# Assay type in all cases: cell-based, human
# [1] = system: SW620 cells; experiment: Boyden chamber invasion assay (Matrigel); details: 1 μM, 24 h
# Description: (§1) HCT116, SW620, LS174T, SW480 and DLD-1 cells were used in cell migration and invasion analysis performed with Boyden chamber assay. 400 μL containing 2.5×10^5 cells were seeded into each transwell chamber with filter membranes of 12.0 μm pore size (Millipore, Schwalbach, Germany). For invasion filter membranes were coated with 50 μL Matrigel (diluted 1:3 in RPMI-1640; BD Biosciences) 10 minutes before cells were seeded. Fresh medium (600 μL) were added to the bottom chamber and cells were allowed to attach to the insets for 15 hours. Both chambers were treated with 1 μM niclosamide or the respective amount of DMSO and incubated at 37° C. and 5% CO2 in a humidified incubator for 24 hours. Afterwards insets were removed and cells that had migrated through the membrane to the lower chamber were trypsinized and counted in a Neubauer chamber (LO-Laboroptik, Bad Homburg, Germany). Each well was counted ten times. Each migration or invasion experiment was performed in duplicate. The average number of migrated or invaded cells was determined for at least three independent experiments.
# (§2) (A) S100A4 expression under niclosamide treatment. Cells were treated with 1 μM niclosamide for 24 hours. S100A4 expression was analyzed with qRT-PCR and immunoblot. (B) Cell migration under niclosamide treatment. Migration rates of cells treated with 1 μM niclosamide for 24 hours were determined in a Boyden chamber assay values were normalized to solvent-treated SW620 cells. (C) Cell invasion under niclosamide treatment. Cells were seeded onto Matrigel covered transwells and treated with 1 μM niclosamide for 24 hours. Invaded cells in the lower chamber were counted and normalized to solvent-treated SW620 cells. Differences in solvent vs. niclosamide-treated cells were analyzed by Student's t test. Data represent mean±SE of at least two independent experiments each performed in triplicate. (D) Directed migration under niclosamide treatment. Wounds of 300 μM width were set in a 60% confluent monolayer of cells on day 1. Cells were treated daily with 1 μM niclosamide for 4 days. Microphotographs of day 4 are presented here with black lines indicating margins of the wound on day 1; scale bar represents 200 μM. Directed migration data shown are representatives of three independent experiments. (E) Adhesive cell proliferation under niclosamide treatment. Cells were treated daily with 1 μM niclosamide. The amount of viable cells per well was determined by MTT assay. (F) Anchorage-independent cell growth under niclosamide treatment. Cells were plated as single cells into 0.33% (w/v) agarose and treatment (solvent or 1 μM niclosamide) containing medium. After 7 days colonies were visualized by light microscopy at 10× (overview) and 40× (single colony) magnification. (G) Quantification of colonies formed. Number of colonies (of more than 4 cells) was counted and normalized to solvent-treated SW620 cells. Differences in solvent vs. niclosamide-treated cells were analyzed by Student's t test. Data represent mean mean±SE of at least two independent experiments each performed in duplicates.
# [2] = system: SW480 cells; experiment: Boyden chamber invasion assay (Matrigel); details: 1 μM, 24 h
# Description: as §1, §2
# [3] = system: LS174T cells; experiment: Boyden chamber invasion assay (Matrigel); details: 1 μM, 24 h
# Description: as §1, §2
# [4] = system: DLD-1 cells; experiment: Boyden chamber invasion assay (Matrigel); details: 1 μM, 24 h
# Description: as §1, §2
# [5] = system: HCT116-vector cells; experiment: Wound healing assay (directed migration); details: 1 μM daily, 4 days
# Description: (§3) For wound healing assay HCT116, SW620, LS174T, SW480 and DLD-1 cells were grown to form 60% confluent monolayers of cells in which a wound of about 300 μm width was inflicted with a sterile pipette tip. The medium was exchanged to remove non-adherent cells and the wounded monolayer was treated with 1 μM niclosamide or the respective amount of DMSO every 24 hours for 4 consecutive days. The progress of wound closure was monitored with microphotographs of 10× magnification taken with the Leica DM IL light microscope (Leica Microsystems) on day 0 and day 4. The wound healing experiment was performed three independent times.
# (§4) (A) Cell migration of HCT116-vector and HCT116-S100A4 cells exposed to niclosamide treatment. Cells were treated with 1 μM niclosamide for 24 hours and migration rates were measured with Boyden chamber assay. […] Cells were treated with 1 μM niclosamide for 24 hours and cell invasion was determined by Boyden chamber assay. (C) Directed migration of HCT116-vector and HCT116-S100A4 cells exposed to niclosamide treatment analyzed by wound healing assay. […] Cells were treated daily with 1 μM niclosamide and cell viability was determined with MTT assay. […] (F) Quantification of colonies formed. Number of colonies (of more than 4 cells) was counted and normalized to solvent-treated HCT116-vector cells. […]
# [6] = system: HCT116-S100A4 cells; experiment: Wound healing assay (directed migration); details: 1 μM daily, 4 days
# Description: as §3, §4
structure (smiles),measurement,setting,value
"O=C(Nc1ccc([N+](=O)[O-])cc1Cl)c1cc(Cl)ccc1O [niclosamide, 2′,5-dichloro-4′-nitrosalicylanilide]","invasion, mean difference control vs niclosamide",[1],74.9%
same,"cell invasion, mean % (normalized to solvent-treated SW620 cells)",[1]; solvent control 100.0%,25.1%
same,"invasion, mean difference control vs niclosamide",[2],34.9%
same,"cell invasion, mean % (normalized to solvent-treated SW620 cells)",[2]; solvent control 47.7%,12.8%
same,"invasion, mean difference control vs niclosamide",[3],39.5%
same,"cell invasion, mean % (normalized to solvent-treated SW620 cells)",[3]; solvent control 63.2%,23.6%
same,invasion rate,[4],not affected
same,wound closure,[5],impaired
same,wound closure,[6],able to migrate into the wound and close the gap

# Source: patent publication US11331290B2, “Niclosamide for the treatment of cancer metastasis” (Max-Delbrück-Centrum für Molekulare Medizin in der …, priority 2011, dated 2022)
